In patent US20240425501A1, “NOVEL BICYCLIC HETEROARYL DERIVATIVES AS SOS1:KRAS PROTEINPROTEIN INTERACTION INHIBITORS” (SATYARX PHARMA INNOVATIONS PVT LTD, priority 2021, published 2024) one finds inhibition data, which are given here for 24 molecules.

The structures appear in SMILES notation. A value given as a limit tells only on which side of the number the result lay.

The target in the assay is T1, hSOS1 enzyme / KRAS (G12C), GST-Tag, GDP-bound protein (Homo sapiens, UniProt Q07889).
T1 sequence (Q07889 564-1049 limits assumed): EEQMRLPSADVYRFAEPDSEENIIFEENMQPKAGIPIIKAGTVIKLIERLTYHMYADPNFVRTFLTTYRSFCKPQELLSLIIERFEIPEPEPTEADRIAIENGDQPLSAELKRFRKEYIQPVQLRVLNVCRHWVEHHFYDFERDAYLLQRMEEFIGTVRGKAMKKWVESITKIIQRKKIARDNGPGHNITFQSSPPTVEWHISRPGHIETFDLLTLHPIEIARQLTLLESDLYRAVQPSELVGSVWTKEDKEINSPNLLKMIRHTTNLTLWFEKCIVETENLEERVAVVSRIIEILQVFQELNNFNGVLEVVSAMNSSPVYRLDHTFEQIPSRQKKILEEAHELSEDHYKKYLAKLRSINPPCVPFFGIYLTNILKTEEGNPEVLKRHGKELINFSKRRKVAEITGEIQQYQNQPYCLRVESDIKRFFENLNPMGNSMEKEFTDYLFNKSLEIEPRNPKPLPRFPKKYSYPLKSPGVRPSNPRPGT
Put plainly: SOS1-mediated KRAS guanine nucleotide exchange (GEF) assay, HTRF ("On Assay"). In kind it is biochemical. To be noted: 1 μM compound. The method, then: Biochemical Assay: Measurement of SOS1-Mediated KRAS Guanine Nucleotide Exchange (GEF) Assay
This assay quantifies the HTRF-based SOS1 mediated guanine nucleotide exchange assay detecting GTP binding to KRAS (G12C), GST-Tag, GDP-bound protein. This is also referred as “On Assay”.The assay buffer composition is as follows: 10 mM HEPES pH-7, 150 mM NaCl, 5 mM MgCl2, 1 mM DTT, 0.05% BSA, 0.0025% IGEPAL CA-630 and MilliQ water. 0.5 μl of compounds diluted in assay buffer were dispensed into the respective wells of 384 black well test plate. 4.75 μl of KRAS working solution containing 100 nM KRAS (G12C), GST-Tag, GDP-bound protein GDP-loaded (Reaction biology) and 2 nM Anti GST-Tb cryptate (FRET donor, Cisbio) was added in assay buffer. The components were incubated for 10 min at 25° C.
4.75 μl of hSOS1 working solution containing 20 nM hSOS1 enzyme and 200 nM EDA-GTP-DY-647P (FRET acceptor, synthesized by Jena Bioscience (Germany), supplied as a 1 mM solution) was further added in assay buffer. 4.75 μl of inhibitor control having only 200 nM EDA-GTP-DY-647P1 component without hSOS1 working solution was added in the negative control well. The plate was short spun for few seconds and incubated for 10 min. HTRF was measured using Perkin Elmer-Nivo 5F multimode plate reader.
HTRF settings: EXCITATION FILTER—320/75 nm, EMISSION FILTER (1) —615/8 nm, EMISSION FILTER (2)—665/8 nm
On the technique in general: TR-FRET usually uses a lanthanide donor and a delayed reading to cut background.
The inhibition is the drop in the measured response relative to a control, in per cent. Low values mean little suppression, high ones strong suppression. On to `CC(C)N1CCN(c2cc3c(N[C@H](C)c4cc(N)cc(C(F)(F)F)c4)nc(Cl)nc3cn2)CC1` [Example 25, (R)—N-(1-(3-amino-5-(trifluoromethyl)phenyl)ethyl)-2-chloro-6-(4-isopropylpiperazin-1-yl)pyrido[3,4-d]pyrimidin-4-amine], for which the inhibition at 1 µM was at least 50%. The result for `C[C@@H](Nc1nc(Cl)nc2cnc(N3CCN(C4CC4)CC3)cc12)c1cc(N)cc(C(F)(F)F)c1` [Example 26, (R)—N-(1-(3-amino-5-(trifluoromethyl)phenyl)ethyl)-2-chloro-6-(4-cyclopropylpiperazin-1-yl)pyrido[3,4-d]pyrimidin-4-amine] reads at least 50%; that for `CC1CCN(c2cc3c(N[C@H](C)c4cc(N)cc(C(F)(F)F)c4)nc(Cl)nc3cn2)CC1` [Example 27, (R)—N-(1-(3-amino-5-(trifluoromethyl)phenyl)ethyl)-2-chloro-6-(4-methylpiperidin-1-yl)pyrido[3,4-d]pyrimidin-4-amine], at least 50%. The result for `C[C@@H](Nc1nc(Cl)nc2cnc(N3CCN(C4CCC4)CC3)cc12)c1cc(N)cc(C(F)(F)F)c1` [Example 28, (R)—N-(1-(3-amino-5-(trifluoromethyl)phenyl)ethyl)-2-chloro-6-(4-cyclobutylpiperazin-1-yl)pyrido[3,4-d]pyrimidin-4-amine] reads at least 50%; that for `C[C@@H](Nc1nc(Cl)nc2cnc(N3CCC(O)CC3)cc12)c1cc(N)cc(C(F)(F)F)c1` [Example 29, (R)-1-(4-((1-(3-amino-5-(trifluoromethyl)phenyl)ethyl)amino)-2-chloropyrido[3,4-d]pyrimidin-6-yl)piperidin-4-ol], at least 50%. For the molecule `CNc1nc(N[C@H](C)c2cc(N)cc(C(F)(F)F)c2)c2cc(N3CCC(OC)CC3)ncc2n1` [Example 30, (R)—N4-(1-(3-amino-5-(trifluoromethyl)phenyl)ethyl)-6-(4-methoxypiperidin-1-yl)-N2-methylpyrido[3,4-d]pyrimidine-2,4-diamine], the inhibition at 1 µM is at least 50%.

The molecule `CNc1nc(N[C@H](C)c2cc(N)cc(C(F)(F)F)c2)c2cc(N3CCN(C)CC3)ncc2n1` [Example 31, (R)—N4-(1-(3-amino-5-(trifluoromethyl)phenyl)ethyl)-N2-methyl-6-(4-methylpiperazin-1-yl)pyrido[3,4-d]pyrimidine-2,4-diamine] came in with an inhibition at 1 µM of at least 50%. `CNc1nc(N[C@H](C)c2cc(N)cc(C(F)(F)F)c2)c2cc(N3CCC(F)(F)CC3)ncc2n1` [Example 32, (R)—N4-(1-(3-amino-5-(trifluoromethyl)phenyl)ethyl)-6-(4,4-difluoropiperidin-1-yl)-N2-methylpyrido[3,4-d]pyrimidine-2,4-diamine] yielded an inhibition at 1 µM of at least 50%. The result for `CNc1nc(N[C@H](C)c2cc(N)cc(C(F)(F)F)c2)c2cc(N3CCC(F)CC3)ncc2n1` [Example 33, (R)—N4-(1-(3-amino-5-(trifluoromethyl)phenyl)ethyl)-6-(4-fluoropiperidin-1-yl)-N2-methylpyrido[3,4-d]pyrimidine-2,4-diamine] reads at least 50%; that for `C[C@@H](Nc1nc(N2CCCC2=O)nc2cnc(N3CCCC3)cc12)c1cc(N)cc(C(F)(F)F)c1` [Example 34, (R)-1-(4-((1-(3-amino-5-(trifluoromethyl)phenyl)ethyl)amino)-6-(pyrrolidin-1-yl)pyrido[3,4-d]pyrimidin-2-yl)pyrrolidin-2-one], at least 50%; that for `CNCCNc1nc(N[C@H](C)c2cc(N)cc(C(F)(F)F)c2)c2cc(N3CCOCC3)ncc2n1` [Example 35, (R)—N4-(1-(3-amino-5-(trifluoromethyl)phenyl)ethyl)-N2-(2-(methylamino)ethyl)-6-morpholinopyrido[3,4-d]pyrimidine-2,4-diamine], at least 50%. Under `COCCNc1nc(N[C@H](C)c2cc(N)cc(C(F)(F)F)c2)c2cc(N3CCOCC3)ncc2n1` [Example 36, (R)—N4-(1-(3-amino-5-(trifluoromethyl)phenyl)ethyl)-N2-(2-methoxyethyl)-6-morpholinopyrido[3,4-d]pyrimidine-2,4-diamine] stands at least 50%; under `C[C@@H](Nc1nc(N2CCC2)nc2cnc(N3CCOCC3)cc12)c1cc(N)cc(C(F)(F)F)c1` [Example 37, (R)—N-(1-(3-amino-5-(trifluoromethyl)phenyl)ethyl)-2-(azetidin-1-yl)-6-morpholinopyrido[3,4-d]pyrimidin-4-amine], at least 50%; under `CC(C)Nc1nc(N[C@H](C)c2cc(N)cc(C(F)(F)F)c2)c2cc(N3CCOCC3)ncc2n1` [Example 38, (R)—N4-(1-(3-amino-5-(trifluoromethyl)phenyl)ethyl)-N2-isopropyl-6-morpholinopyrido[3,4-d]pyrimidine-2,4-diamine], at least 50%. Under `CNCCNc1nc(N[C@H](C)c2cc(N)cc(C(F)(F)F)c2)c2cc(N3CCCC3)ncc2n1` [Example 39, (R)—N4-(1-(3-amino-5-(trifluoromethyl)phenyl)ethyl)-N2-(2-(methylamino)ethyl)-6-(pyrrolidin-1-yl)pyrido[3,4-d]pyrimidine-2,4-diamine] stands at least 50%; under `COC1CCN(c2cc3c(N[C@H](C)c4cc(N)cc(C(F)(F)F)c4)nc(N4CCC4)nc3cn2)CC1` [Example 40, (R)—N-(1-(3-amino-5-(trifluoromethyl)phenyl)ethyl)-2-(azetidin-1-yl)-6-(4-methoxypiperidin-1-yl)pyrido[3,4-d]pyrimidin-4-amine], at least 50%.

For the molecule `COC1CCN(c2cc3c(N[C@H](C)c4cc(N)cc(C(F)(F)F)c4)nc(N(C)C)nc3cn2)CC1` [Example 41, (R)—N4-(1-(3-amino-5-(trifluoromethyl)phenyl)ethyl)-6-(4-methoxypiperidin-1-yl)-N2,N2-dimethylpyrido[3,4-d]pyrimidine-2,4-diamine], the inhibition at 1 µM was at least 50%. The result for `COC1CCN(c2cc3c(N[C@H](C)c4cc(N)cc(C(F)(F)F)c4)nc(NC(C)C)nc3cn2)CC1` [Example 42, (R)—N4-(1-(3-amino-5-(trifluoromethyl)phenyl)ethyl)-N2-isopropyl-6-(4-methoxypiperidin-1-yl)pyrido[3,4-d]pyrimidine-2,4-diamine] reads at least 50%; that for `C[C@@H](Nc1nc(N(C)C)nc2cnc(N3CCC(F)CC3)cc12)c1cc(N)cc(C(F)(F)F)c1` [Example 43, (R)—N4-(1-(3-amino-5-(trifluoromethyl)phenyl)ethyl)-6-(4-fluoropiperidin-1-yl)-N2,N2-dimethylpyrido[3,4-d]pyrimidine-2,4-diamine], at least 50%; that for `C[C@@H](Nc1nc(N2CCC2)nc2cnc(N3CCC(F)CC3)cc12)c1cc(N)cc(C(F)(F)F)c1` [Example 44, (R)—N-(1-(3-amino-5-(trifluoromethyl)phenyl)ethyl)-2-(azetidin-1-yl)-6-(4-fluoropiperidin-1-yl)pyrido[3,4-d]pyrimidin-4-amine], at least 50%. In turn, `C[C@@H](Nc1nc(N(C)C)nc2cnc(N3CCN(C)CC3)cc12)c1cc(N)cc(C(F)(F)F)c1` [Example 45, (R)—N4-(1-(3-amino-5-(trifluoromethyl)phenyl)ethyl)-N2,N2-dimethyl-6-(4-methylpiperazin-1-yl)pyrido[3,4-d]pyrimidine-2,4-diamine] registered an inhibition at 1 µM of at least 50%.

The molecule `C[C@@H](Nc1nc(N2CCC2)nc2cnc(N3CCN(C)CC3)cc12)c1cc(N)cc(C(F)(F)F)c1` [Example 46, (R)—N-(1-(3-amino-5-(trifluoromethyl)phenyl)ethyl)-2-(azetidin-1-yl)-6-(4-methylpiperazin-1-yl)pyrido[3,4-d]pyrimidin-4-amine] gave an inhibition at 1 µM of at least 50%. The result for `CC1CCN(c2cc3c(N[C@H](C)c4cc(N)cc(C(F)(F)F)c4)nc(N4CCC4)nc3cn2)CC1` [Example 47, (R)—N-(1-(3-amino-5-(trifluoromethyl)phenyl)ethyl)-2-(azetidin-1-yl)-6-(4-methylpiperidin-1-yl)pyrido[3,4-d]pyrimidin-4-amine] reads below 50%; that for `CCN1CCN(c2cc3c(N[C@H](C)c4cc(N)cc(C(F)(F)F)c4)nc(N4CCC4)nc3cn2)CC1` [Example 48, (R)—N-(1-(3-amino-5-(trifluoromethyl)phenyl)ethyl)-2-(azetidin-1-yl)-6-(4-ethylpiperazin-1-yl)pyrido[3,4-d]pyrimidin-4-amine], at least 50%.
